Results from patent US20080022467A1, “Disazo dyes and their preparation and use” (ILFORD Imaging Switzerland GmbH, priority 2006, published 2008).

How the values were obtained:
[1] = Light stability of printed patches (Weather-Ometer, xenon lamp); assay type: physicochemical; design: key to Light Stability (Class) on Recording Sheet A / Light Stability (Class) on Recording Sheet B / Light Stability (Class) on Recording Sheet C / Light Stability (Class) on Recording Sheet D / Light Stability (Class) on Recording Sheet E / Light Stability (Class) on Recording Sheet F / Light Stability (Class) on Recording Sheet G: A: excellent; B: good; C: satisfactory; D: unsatisfactory; conditions: for Light Stability (Class) on Recording Sheet A: A: HP Printing Paper HPP 1122 (paper), 20° C., 50% relative humidity; for Light Stability (Class) on Recording Sheet A / Light Stability (Class) on Recording Sheet B / Light Stability (Class) on Recording Sheet C / Light Stability (Class) on Recording Sheet D / Light Stability (Class) on Recording Sheet E / Light Stability (Class) on Recording Sheet F / Light Stability (Class) on Recording Sheet G: 20 megalux hours; for Light Stability (Class) on Recording Sheet B: B: HP Premium Plus (polymer based); for Light Stability (Class) on Recording Sheet C: C: ILFORD Galerie Smooth Glossy (nanoporous); for Light Stability (Class) on Recording Sheet D: D: ILFORD Printasia Premium Photo Glossy Paper (nanoporous); for Light Stability (Class) on Recording Sheet E: E: ILFORD Galerie Classic Gloss Paper (polymer based); for Light Stability (Class) on Recording Sheet F: F: EPSON Premium Glossy Photo Paper (nanoporous); for Light Stability (Class) on Recording Sheet G: G: CANON Photo Paper Pro PR-101 (nanoporous); for light stability on all recording sheets (in words): summary of Table 4
Protocol: (§1) The present invention, as far as it relates to recording liquids, is illustrated by the following examples using the disazo dyes of Table 1 according to the invention and dyes representing the state of the art. For each dye, 100 g of recording liquid were prepared by heating the necessary amount of dye (2.0 g-5.0 g), 6.0 g of ethylene glycol, 3.0 g of propylene-1,2-glycol, 3.0 g of 1-methyl-2-pyrrolidone, 0.3 g of an aqueous solution (50%) of Olin® 10G (available from Arch Chemicals Inc., Norwalk, USA), 0.3 g of Surfinol® 465 (available from Air Products and Chemicals Inc., Allentown, USA) and 0.1 g of Mergal® K 10N (available from Riedel-de-Haën, Seelze, Germany) together with water at a temperature of 50° C. under stirring for approximately 1 hour. The resulting solution was cooled down to a temperature of 20° C., its value of pH was adjusted to 7.5 and the solution was passed through a Millipore® filter of 0.3 μm pore diameter. The dye quantity was adjusted in such a way that the optical density of the printed image was similar for all dyes.
(§2) Homogeneously colored square patches with an approximate density of 1.40 were then printed, using these recording liquids, with an ink jet printer Canon BJC 8500 onto the following recording sheets: • A: HP Printing Paper HPP 1122 (paper) • B: HP Premium Plus (polymer based recording sheet) • C: ILFORD Galerie Smooth Glossy (nanoporous recording sheet) • D: ILFORD Printasia Premium Photo Glossy Paper (nanoporous recording sheet) • E: ILFORD Galerie Classic Gloss Paper (polymer based recording sheet) • F: EPSON Premium Glossy Photo Paper (nanoporous recording sheet) • G: CANON Photo Paper Pro PR-101 (nanoporous recording sheet)
The printed samples were irradiated using a Weather-Ometer® Ci35A (available from Atlas Material Testing Technology, Chicago, USA) with a 6500 W xenon lamp at a temperature of 20° C. and relative humidity of 50% until an illumination of 20 megalux hours was reached. The density loss was measured with a densitometer Spectrolino®. The percent density loss of initial density gives an indication of the light stability of the dyes on the printed recording sheet.

[2] = Stability against degradation by ozone of printed patches; assay type: physicochemical; design: key: A: excellent; B: good; C: satisfactory; D: unsatisfactory; conditions: ozone 1 ppm, 30° C., 50% relative humidity; for Resistance against Degradation by Ozone (Class) on Recording Sheet C: C: ILFORD Galerie Smooth Glossy (nanoporous); for Resistance against Degradation by Ozone (Class) on Recording Sheet D: D: ILFORD Printasia Premium Photo Glossy Paper (nanoporous); for Resistance against Degradation by Ozone (Class) on Recording Sheet F: F: EPSON Premium Glossy Photo Paper (nanoporous); for Resistance against Degradation by Ozone (Class) on Recording Sheet G: G: CANON Photo Paper Pro PR-101 (nanoporous)
Protocol: as §1, §2
The optical density of the colored square patches was measured with a Spectrolino® densitometer. Afterwards, the printed samples were stored for a predetermined time (for example 48 hours) in an ozone chamber, model 903 (available from Satra/Hampden, Great Britain) at a temperature of 30° C., a relative humidity of the air of 50% and an ozone concentration of 1 ppm at a velocity of the circulating, ozone containing air of 13 mm/s. After storage, the samples were re-measured. The density differences of these two measurements, expressed as per cent of the initial density, are an indication of the amount of dye loss due to the exposure to ozone.

Molecule | Light Stability (Class) on Recording Sheet A [1] | Light Stability (Class) on Recording Sheet B [1] | Light Stability (Class) on Recording Sheet C [1] | Light Stability (Class) on Recording Sheet D [1] | Light Stability (Class) on Recording Sheet E [1] | Light Stability (Class) on Recording Sheet F [1] | Light Stability (Class) on Recording Sheet G [1] | Resistance against Degradation by Ozone (Class) on Recording Sheet C [2] | Resistance against Degradation by Ozone (Class) on Recording Sheet D [2] | Resistance against Degradation by Ozone (Class) on Recording Sheet F [2] | Resistance against Degradation by Ozone (Class) on Recording Sheet G [2] | light stability on all recording sheets (in words) [1]
O=C([O-])c1cc(Nc2nc(Nc3ccc(N=Nc4cc(S(=O)(=O)[O-])c5cccc(S(=O)(=O)[O-])c5c4)cc3)nc(Nc3ccc(N=Nc4cc(S(=O)(=O)[O-])c5cccc(S(=O)(=O)[O-])c5c4)cc3)n2)cc(C(=O)[O-])c1.[Na+].[Na+].[Na+].[Na+].[Na+].[Na+] [Dye No. 18] | B | A | B | B | B | B | B | A | A | A | A | –
O=S(=O)([O-])c1cc(/N=N/c2ccc(Nc3nc(NCCO)nc(Nc4ccc(/N=N/c5cc(S(=O)(=O)[O-])c6cccc(S(=O)(=O)[O-])c6c5)cc4)n3)cc2)cc2c(S(=O)(=O)[O-])cccc12.[Na+].[Na+].[Na+].[Na+] [Dye No. I, reference compound] | A | A | B | B | B | A | B | A | B | A | A | excellent or good light stability
O=S(=O)([O-])CCCSc1nc(Nc2ccc(N=Nc3ccc4cc(S(=O)(=O)[O-])cc(S(=O)(=O)[O-])c4c3)cc2)nc(Nc2ccc(N=Nc3ccc4cc(S(=O)(=O)[O-])cc(S(=O)(=O)[O-])c4c3)cc2)n1.[Na+].[Na+].[Na+].[Na+].[Na+] [Dye No. 15] | B | A | B | B | B | B | B | B | A | A | A | –
O=S(=O)([O-])CCNc1nc(Nc2ccc(N=Nc3cc(S(=O)(=O)[O-])c4cccc(S(=O)(=O)[O-])c4c3)cc2)nc(Nc2ccc(N=Nc3cc(S(=O)(=O)[O-])c4cccc(S(=O)(=O)[O-])c4c3)cc2)n1.[Na+].[Na+].[Na+].[Na+].[Na+] [Dye No. 11] | B | A | A | B | B | A | A | A | A | A | A | –

Second part, led by results:

Light Stability (Class) on Recording Sheet A [1] | Light Stability (Class) on Recording Sheet B [1] | Light Stability (Class) on Recording Sheet C [1] | Light Stability (Class) on Recording Sheet D [1] | Light Stability (Class) on Recording Sheet E [1] | Light Stability (Class) on Recording Sheet F [1] | Light Stability (Class) on Recording Sheet G [1] | Resistance against Degradation by Ozone (Class) on Recording Sheet C [2] | Resistance against Degradation by Ozone (Class) on Recording Sheet D [2] | Resistance against Degradation by Ozone (Class) on Recording Sheet F [2] | Resistance against Degradation by Ozone (Class) on Recording Sheet G [2] | Molecule | light stability on all recording sheets (in words) [1]
B | A | A | B | B | B | B | A | A | A | A | O=S(=O)([O-])CCCSc1nc(Nc2ccc(N=Nc3cc(S(=O)(=O)[O-])c4cccc(S(=O)(=O)[O-])c4c3)cc2)nc(Nc2ccc(N=Nc3cc(S(=O)(=O)[O-])c4cccc(S(=O)(=O)[O-])c4c3)cc2)n1.[Na+].[Na+].[Na+].[Na+].[Na+] [Dye No. 10] | –
B | A | A | B | B | B | B | A | A | A | A | CN(CCS(=O)(=O)[O-])c1nc(Nc2ccc(N=Nc3cc(S(=O)(=O)[O-])c4cccc(S(=O)(=O)[O-])c4c3)cc2)nc(Nc2ccc(N=Nc3cc(S(=O)(=O)[O-])c4cccc(S(=O)(=O)[O-])c4c3)cc2)n1.[Na+].[Na+].[Na+].[Na+].[Na+] [Dye No. 14] | –
C | A | B | B | B | B | B | D | B | C | C | Direct Yellow 132 [Dye No. III, reference compound] | satisfactory or even unsatisfactory light stability
B | A | B | B | B | B | B | A | A | A | A | O=S(=O)([O-])CCNc1nc(Nc2ccc(N=Nc3ccc4cc(S(=O)(=O)[O-])cc(S(=O)(=O)[O-])c4c3)cc2)nc(Nc2ccc(N=Nc3ccc4cc(S(=O)(=O)[O-])cc(S(=O)(=O)[O-])c4c3)cc2)n1.[Na+].[Na+].[Na+].[Na+].[Na+] [Dye No. 16] | –
B | A | A | B | B | B | B | B | A | A | A | CN(CCS(=O)(=O)[O-])c1nc(Nc2ccc(N=Nc3ccc4cc(S(=O)(=O)[O-])cc(S(=O)(=O)[O-])c4c3)cc2)nc(Nc2ccc(N=Nc3ccc4cc(S(=O)(=O)[O-])cc(S(=O)(=O)[O-])c4c3)cc2)n1.[Na+].[Na+].[Na+].[Na+].[Na+] [Dye No. 17] | –
